# Source: US9745345B2, “Anti-tumor polypeptides and method for preparing anti-tumor drugs comprisng the same” (priority 2013, dated 2017)
# Square brackets hold non-standard residues; d marks the D form. Ends that are not written are not given here. pS = N[C@@H](COP(=O)(O)O)C(=O)O; Ahx = NCCCCCC(=O)O
# Key:
# [1] = system: human melanoma A375 cells; experiment: Human melanoma A375 subcutaneous xenograft in NOD/SCID mice, intraperitoneal injection of polypeptides; type: in vivo; settings: Example 5; 50 mg/kg intraperitoneal, alternate days, 5 times
# Text: The polypeptide designed and synthesized in this example was JWA-6+RGD whose sequence was SEQ ID NO: 7, i.e. 6-aminocaproic acid-FPGSDRF-GGGG-RGD, wherein amino acid S was phosphorylated. In addition, the N-terminus of the polypeptide sequence was acetylated and the C-terminus thereof was amidated during synthesis to prevent rapid degradation of the polypeptide. In this example, non-obese diabetic/severe combined immunodeficiency (NOD/SCID) mice were chosen for tumor-bearing model and the method for dorsal subcutaneous tumor bearing by inoculation of human melanoma A375 cells is the same as Example 2. The mice were randomly divided into four treatment groups after the tumors grew to a volume of about 100 mm^3. […]
# Then, 50 mg/kg polypeptide JWA-6, 10 mg/kg polypeptide JWA-6+RGD, 50 mg/kg polypeptide JWA-6+RGD, and 50 mg/kg non-pep (the polypeptide sequence used was the same as Example 3) were injected intraperitoneally. The various groups were administered with injection on alternate days for 5 times consecutively; and the body weight of the mice and their tumor diameters were measured at each administration. After completion of the experiment the mice were sacrificed after anesthesia, tumors were separated from the bodies and the tumor weights measured.
# Thereafter, the tumor bearing mice were obtained using the foregoing method of this example and divided into seven injection groups which were intraperitoneally injected with polypeptides JWA-6+RGD, JWA-6+RGD0, JWA-6+RGD1, JWA-6+RGD3, JWA-6+RGD7, JWA-6+RGD10, and non-pep (the polypeptide sequence used was the same as Example 3) at a dose of 50 mg/kg. The various groups were administered by intraperitoneal injection on alternate days for 5 times consecutively; and the body weight of the mice and their tumor diameters were measured at each administration. The day of first administration was taken as the first day, and the experiment was stopped on the twelfth day when the mice were sacrificed after anesthesia, and tumors were separated from the bodies and the tumor weights were measured.
# [2] = system: Human Melanoma A375 Cells; experiment: Cell proliferation with CCK8 reagent, A375 cells; type: cell-based; settings: 0-50 μM, 24, 48 and 72 hrs, in comparison with the control group
# Experimental: (§1) B16F10 or A375 cells in the logarithmic phase of growth were trypsinized and seeded in a 96-well plate (5×10^3 cells/well), and were treated with different doses (0 μM, 5 μM, 10 μM, 25 μM, 50 μM) of polypeptide JWA-1, JWA-5, JWA-6 or non-pep (the polypeptide sequence used was the same as Example 3) for 24 hrs, 48 hrs and 72 hrs, respectively. The original culture medium was removed from the 96 wells at the indicated time and cell proliferation was determined with CCK8 reagent according to the manufacturer's instructions. Four duplicate samples were taken from each group and the experiments were repeated for three times.
# [3] = system: Mouse Melanoma B16F10 Cells; experiment: Cell proliferation with CCK8 reagent, B16F10 cells; type: cell-based; settings: 0-50 μM, 24, 48 and 72 hrs, in comparison with the control group
# Experimental: as §1
# [4] = system: A375 cells; experiment: Cytoactivity of A375 cells treated with ATO alone or with polypeptides in combination with ATO; type: cell-based, human
# Experimental: Firstly, the dose and time for treatment of A375 cells with ATO were determined. A375 cells in the logarithmic phase of growth were conventionally digested and seeded in a 96-well plate (5×10^3 cells/well), and different doses (5 μM, 10 μM, 25 μM, 50 μM) of ATO were used to treat the cells for 24 hrs and 48 hrs after cell attachment. It was discovered that the activity of A375 cells was reduced by 40% after 24 hrs of treatment with 5 μM ATO (as shown in FIG. 24), and that the cell growth inhibition rate was approximately 100% after 48 hrs of treatment with different doses of ATO (as shown in FIG. 25). Therefore, ATO with a concentration smaller than or equal to 5 μM was chosen to treat the cells for 24 hrs for subsequent reference of dose and time for combined medication.
# [5] = system: A375 cells; experiment: Western Blot of apoptosis-related molecules (PARP-1, caspase-3) in A375 cells; type: cell-based, human; settings: JWA-6 in combination with ATO, 24 hrs; compared to untreated group and ATO alone
# Experimental: (§2) The combined effect of ATO and polypeptide JWA-6 on the self-destruction of protein expression was also determined A375 cells in the logarithmic phase of growth were conventionally digested and 5×10^5 cells were inoculated evenly in a 60 mm cell culture dish, and different doses of ATO were used to individually treat the cells for 24 hrs, or different doses of ATO in combination with different doses of polypeptide JWA-6 were used to treat the cells for 24 hrs, after which 0.18 mL of RIPA lysis buffer containing 0.5% phenylmethanesulfonyl fluoride (PMSF) was added to extract protein. After centrifugation at 12000×g for 15 minutes, the supernatant was taken, protein concentration was examined. Based on the molecular weight measured, a polyacrylamide gel having a suitable concentration was chosen for protein electrophoresis where each well was added with […] of protein, and the conditions for electrolysis were 60 V, 30 minutes and 90 V, 1-1.5 hrs. After completion of the electrolysis, semi-dry transfer was performed to transfer the protein from the gel onto a polyvinylidene difluoride (PVDF) membrane. After completion of the transfer, the membrane was blocked with 5% skim milk at room temperature for 1-2 hrs. Then, the membrane was washed 3 times (each lasting 5 minutes) using Tris-buffered Saline with Tween (TBST) containing 0.1% Tween-20, and incubation of the corresponding antibody was performed overnight at 4° C. On the next day, membrane was washed 3 times (each lasting 5 minutes) using Tris-buffered Saline with Tween (TBST) containing 0.1% Tween-20; incubation of secondary antibody was performed at room temperature for 1-2 hrs; and again membrane was washed 8 times (each lasting 5 minutes) using Tris-buffered Saline with Tween (TBST) containing 0.1% Tween-20. The membrane was added with enhanced chemiluminescence (ECL) liquid and exposed.
# Polypeptide CPP-JWA-6 at a dose of 20 μM, 50 μM was applied individually and applied in combination with ATO (5 μM) on A375 cells (as shown in FIG. 40) and SGC7901 cells (as shown in FIG. 41) for 24 hrs before protein was extracted, and the Western Blot method of Example 7 was used to examine the changes in apoptosis-related molecules.
# [6] = system: B16 cells; experiment: Western Blot of PARP-1 in B16 cells; type: cell-based; settings: JWA-6 in combination with ATO, 24 hrs
# [7] = system: SGC7901 cells; experiment: Annexin V-PE/7-AAD flow cytometry of apoptosis in SGC7901 cells; type: cell-based
# Text: Six groups with different treatment methods directed against SGC7901 cells were designed: blank control group; transfection Flag-control group; transfection Hag-JWA group; transfection Flag-JWA and ATO combined treatment group; ATO treatment group; and polypeptide CPP-1 and ATO combined treatment group. After 24 hrs of treatment for each group, Annexin V-PE/PI flow cytometry was used to examine apoptosis and Western Blot was used to detect the level of PARP-1. […]
# In normal cells, phosphatidyl serine (PS) are distributed on the inside of cell membrane lipid bilayer, and at the early stage of apoptosis the phosphatidyl serine (PS) in cell membranes is turned over from the inside of lipid membrane to the outside thereof. […] Annexin V was labeled with fluorescein phycoerythrin (PE); fluorescence microscopy or flow cytometry could be employed to examine apoptosis with the labeled Annexin V used as a fluorescent probe. […] Cells were divided into three group by the fluorescence intensity of 7-AAD labeling DNA: strong fluorescence of 7-AAD indicates dead cells, weak fluorescence of 7-AAD indicates apoptotic cells, and undetectable fluorescence of 7-AAD indicates normal active cells. […]
# [8] = system: SGC7901 gastric cancer cell; experiment: Fluorescence of FITC-modified cell-penetrating peptides after entry into SGC7901 cells; type: cell-based; settings: 20 μM, 3 hrs
# Text: To enable JWA functional polypeptides to effectively penetrate into tumor cells, four typical CPPs: R9, TAT, pep-1, 2K (see Table 3), and a blank control having only JWA-1 were selected, the cell-penetrating peptide (CPP) with the highest cell-penetrating effect, its optimal action concentration and optimal action time were selected from the cell model.
# To facilitate the use of fluorescence microscopy to directly observe whether polypeptides have the ability to enter cells, the N-terminuses of the aforementioned sequences and JWA-1 were modified with fluorescein isothiocyanate (FITC) and the C-terminuses thereof were amidated.
# [9] = system: SGC7901 cells; experiment: Western Blot of PARP-1 in SGC7901 cells; type: cell-based; settings: CPP-1 and ATO combined action group versus other groups
# Experimental: as §2, with “exposed. […]” for “exposed.”
substance,measurement,setting,value
6-aminocaproic acid-FPGSDRF ([Ahx]FPG[pS]DRF) [JWA-6],tumor inhibition effect,[1],a certain degree of tumor inhibition effect
same,inhibition effect on A375 cells,[2],no inhibition effect
same,inhibition effect on B16F10 cells,[3],no inhibition effect
same,"cytoactivity of A375 cells, combined use with ATO","[4]; polypeptide 50-500 μM in combination with ATO 0.5-5 μM, 24 and 48 hrs",obvious toxicity
same,cleaved PARP-1,[5],significantly increased
same,cleaved caspase-3,[5],significantly increased
same,changes of PARP-1,[6],changes of PARP-1 were also seen
"arsenic trioxide [ATO, reference compound]",activity of A375 cells reduced by,"[4]; 5 μM ATO alone, 24 hrs",40%
same,cell growth inhibition rate,"[4]; ATO alone, different doses (5, 10, 25, 50 μM), 48 hrs",approximately 100%
same,apoptosis rate,"[7]; pure ATO treatment group, 24 hrs",24.69%
"6-aminocaproic acid-RRRRRRRRR ([Ahx]RRRRRRRRR) [R9, cell-penetrating peptide (CPP)]","fluorescence after entry into cells, differences between R9 group and other groups",[8],the most significant
6-aminocaproic acid-(R)9-FFPGSDRFA ([Ahx]RRRRRRRRRFFPG[pS]DRFA) [CPP-1],apoptosis rate,"[7]; 20 μM polypeptide 3 hrs, then 5 μM ATO 24 hrs (combined action group)",55.76%
same,expression of PARP-1 spliceosome,[9],higher than those of other groups
